Measured values reported in US12427146B2, “C-terminal SRC kinase inhibitors” (INVENTISBIO CO., LTD., priority 2018, dated 2025).

Tests used:
CSK protein = CSK protein (Homo sapiens (Human), UniProt P41240); test: CSK Inhibition Assay; type: biochemical
Description: Test compound was dissolved in DMSO at 10 mM. 45 uL of compound was transferred into a 384-well compound source plate (LABCYTE cat #P-05525) and serially diluted at 1:3 ratio to create a 11-point dilutions. The same volume of DMSO was adopted as high control. 20 nL of these compounds DMSO dilutes were dispensed into a new 384-well assay plate by Echo 550. […] 15 uL of kinase assay buffer containing CSK protein and substrate was transferred to assay plate and incubated at RT for 30 minutes. Kinase assay buffer supplemented with substrate peptides was employed as low control to monitor the background. 4 μM of ATP was prepared in kinase assay buffer and 5 μL of ATP solution was added to each well to start the reaction. The assay plate was incubated at 25° C. for 90 minutes and the reaction was stopped by adding 40 μL of 0.5 M EDTA.
(§1) Phosphorylated fluorescent-tagged peptides were differentiated from non-phosphorylated peptides by separating using Caliper EZ Reader II and the detection was directly converted to conversion ratio.
(§2) For estimation of IC50, the % substrate conversion values are transformed to % Inhibition Ratio by applying the following equation: […]

LCK protein = LCK protein (Homo sapiens (Human), UniProt P06239); test: LCK Inhibition Assay; type: biochemical
Description: Test compound was dissolved in DMSO at 10 mM. 45 uL of compound was transfer into a 384-well compound source plate (LABCYTE cat #P-05525) and serially diluted at 1:3 ratio to create a 11-point dilutions. The same volume of DMSO was adopted as high control. 20 nL of these compounds DMSO dilutes were dispensed into a new 384-well assay plate by Echo 550. LCK protein (0.50 nM, Cama Biosciences, cat #08-170), florescent labeled substrate FLPeptide4 (2 μM, PerkinElmer, cat #760348) was prepared in kinase assay buffer (50 mM HEPES (pH 7.5), 10 mM MgCl2, 0.01% Brij-35, 2 mM DTT and 0.005 mg/ml BSA). 15 uL of kinase assay buffer containing LCK protein and substrate was transferred to assay plate and incubate at RT for 30 minutes. Kinase assay buffer supplemented with substrate peptides was employed as low control to monitor the background. 400 μM ATP was prepared in kinase assay buffer and 5 μL of ATP solution was added to each well to start the reaction. The assay plate was incubated at 25° C. for 90 minutes and the reaction was stopped by adding 40 μL of 0.5 M EDTA.
as §1, §2

LCK protein, sequence (P06239 whole entry): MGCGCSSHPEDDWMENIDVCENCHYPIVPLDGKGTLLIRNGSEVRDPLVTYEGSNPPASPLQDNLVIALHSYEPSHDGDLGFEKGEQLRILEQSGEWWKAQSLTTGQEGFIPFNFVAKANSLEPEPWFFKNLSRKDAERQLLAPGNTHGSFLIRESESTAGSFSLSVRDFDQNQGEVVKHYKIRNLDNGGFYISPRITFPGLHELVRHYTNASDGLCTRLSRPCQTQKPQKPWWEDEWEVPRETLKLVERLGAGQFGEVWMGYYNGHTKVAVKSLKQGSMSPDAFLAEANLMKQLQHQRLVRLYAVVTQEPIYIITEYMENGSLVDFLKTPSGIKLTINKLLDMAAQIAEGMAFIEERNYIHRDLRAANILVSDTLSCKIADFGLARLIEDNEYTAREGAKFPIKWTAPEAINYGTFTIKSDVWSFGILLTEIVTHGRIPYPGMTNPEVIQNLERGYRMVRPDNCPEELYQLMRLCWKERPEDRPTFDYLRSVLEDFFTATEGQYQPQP
CSK protein, sequence (P41240 whole entry): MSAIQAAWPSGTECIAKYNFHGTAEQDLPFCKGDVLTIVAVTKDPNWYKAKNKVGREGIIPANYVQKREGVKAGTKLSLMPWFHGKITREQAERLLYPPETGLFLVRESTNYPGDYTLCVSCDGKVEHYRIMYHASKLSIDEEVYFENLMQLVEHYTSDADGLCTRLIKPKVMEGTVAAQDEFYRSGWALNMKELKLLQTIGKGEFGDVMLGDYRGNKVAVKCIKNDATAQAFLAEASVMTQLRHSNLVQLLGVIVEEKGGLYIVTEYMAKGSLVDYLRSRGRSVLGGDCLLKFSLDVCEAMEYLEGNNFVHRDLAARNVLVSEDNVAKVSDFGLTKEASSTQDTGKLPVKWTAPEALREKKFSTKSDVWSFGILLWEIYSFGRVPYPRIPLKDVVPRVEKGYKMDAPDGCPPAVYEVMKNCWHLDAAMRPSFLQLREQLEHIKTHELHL

Structure (SMILES)	IC50 (CSK protein)	IC50 (LCK protein)
Cc1ccc(F)c(S(=O)(=O)Nc2cccc(-c3nc(-c4ccc(F)cn4)sc3-c3ccnc(N)n3)c2F)c1F [Compound 54]	92.8 nM	> 1000 nM
CNc1nccc(-c2sc(-c3ccc(F)cn3)nc2-c2cccc(NS(=O)(=O)c3c(F)ccc(C)c3F)c2F)n1 [Compound 55]	30.3 nM	> 1000 nM
CCNc1nccc(-c2sc(-c3ccc(F)cn3)nc2-c2cccc(NS(=O)(=O)c3c(F)ccc(C)c3F)c2F)n1 [Compound 56]	47 nM	> 1000 nM
CNc1nccc(-c2sc(-c3ccc(F)cn3)nc2-c2cccc(NS(=O)(=O)c3c(F)ccc(Cl)c3F)c2F)n1 [Compound 58]	31.5 nM	> 1000 nM
COC(=O)NCCNc1nccc(-c2sc(-c3ccccc3)nc2-c2cccc(NS(=O)(=O)c3c(F)cccc3F)c2F)n1 [Compound 59]	68.4 nM	> 1000 nM
COC(=O)N[C@H](C)CNc1nccc(-c2sc(-c3ccccc3)nc2-c2cccc(NS(=O)(=O)c3c(F)cccc3F)c2F)n1 [Compound 60]	120 nM	> 1000 nM
Cc1ccc(Cl)c(S(=O)(=O)Nc2cccc(-c3nc(-c4cncc(F)c4)sc3-c3ccnc(N)n3)c2F)c1Cl [Compound 61]	12.6 nM	> 1000 nM
Nc1nccc(-c2sc(-c3cncc(F)c3)nc2-c2cccc(NS(=O)(=O)c3c(Cl)cccc3Cl)c2F)n1 [Compound 62]	9.4 nM	> 1000 nM
CNc1nccc(-c2sc(-c3cncnc3)nc2-c2cccc(NS(=O)(=O)c3c(F)cccc3F)c2F)n1 [Compound 63]	20.6 nM	> 1000 nM
CNc1nccc(-c2sc(-c3cncc(F)c3)nc2-c2cccc(NS(=O)(=O)c3c(F)cc(OC)cc3F)c2F)n1 [Compound 64]	18.3 nM	> 1000 nM
CNc1nccc(-c2sc(-c3ccc(C)nn3)nc2-c2cccc(NS(=O)(=O)c3c(F)ccc(C)c3F)c2F)n1 [Compound 65]	14.9 nM	> 1000 nM
O=S(=O)(Nc1cccc(-c2nc(-c3cncc(F)c3)sc2-c2ccnc(NCCO)n2)c1F)c1c(F)cccc1F [Compound 66]	19.6 nM	> 1000 nM
NCCNc1nccc(-c2sc(-c3cncc(F)c3)nc2-c2cccc(NS(=O)(=O)c3c(F)cccc3F)c2F)n1 [Compound 67]	617 nM	> 1000 nM
O=S(=O)(Nc1cccc(-c2nc(-c3cncc(F)c3)sc2-c2ccnc(NC3CC3)n2)c1F)c1c(F)cccc1F [Compound 68]	16.2 nM	> 1000 nM
CNc1nccc(-c2sc(-c3cnc(C)nc3)nc2-c2cccc(NS(=O)(=O)c3c(F)ccc(C)c3F)c2F)n1 [Compound 69]	13.4 nM	> 1000 nM
CNc1nccc(-c2sc(-c3ccc(F)cc3)nc2-c2cccc(NS(=O)(=O)c3c(F)ccc(C)c3F)c2F)n1 [Compound 70]	92.3 nM	> 1000 nM
CNc1nccc(-c2sc(-c3cccc(F)c3)nc2-c2cccc(NS(=O)(=O)c3c(F)ccc(C)c3F)c2F)n1 [Compound 71]	41.8 nM	> 1000 nM
CNc1nccc(-c2sc(-c3cncc(F)c3)nc2-c2cc(OC)cc(NS(=O)(=O)c3c(F)cccc3F)c2F)n1 [Compound 72]	26.1 nM	> 1000 nM
CNc1nccc(-c2sc(-c3cncnc3)nc2-c2cccc(NS(=O)(=O)c3c(F)ccc(C)c3F)c2F)n1 [Compound 73]	14.8 nM	> 1000 nM
CNc1nccc(-c2sc(-c3cncc(F)c3)nc2-c2cccc(NS(=O)(=O)c3c(F)cccc3F)c2F)n1 [Compound 74]	8.8 nM	> 1000 nM
CNc1nccc(-c2sc(-c3cncc(C(F)(F)F)c3)nc2-c2cccc(NS(=O)(=O)c3c(F)cccc3F)c2F)n1 [Compound 75]	73.9 nM	> 1000 nM
CNc1nccc(-c2sc(-c3cnccn3)nc2-c2cccc(NS(=O)(=O)c3c(F)cccc3F)c2F)n1 [Compound 76]	19.1 nM	> 1000 nM
CNc1nccc(-c2sc(-c3ccc(F)cn3)nc2-c2cccc(NS(=O)(=O)c3c(F)cc(F)cc3F)c2F)n1 [Compound 77]	85.5 nM	> 1000 nM
CC(C)Nc1nccc(-c2sc(-c3cncc(F)c3)nc2-c2cccc(NS(=O)(=O)c3c(F)cccc3F)c2F)n1 [Compound 78]	11.8 nM	> 1000 nM
O=S(=O)(Nc1cccc(-c2nc(-c3cncc(F)c3)sc2-c2ccnc(NCCO)n2)c1F)c1c(Cl)cccc1Cl [Compound 79]	7.6 nM	> 1000 nM

Structure (SMILES)	IC50 (CSK protein)	IC50 (LCK protein)
O=S(=O)(Nc1cccc(-c2nc(-c3cncc(F)c3)sc2-c2ccnc(NC3CC3)n2)c1F)c1c(Cl)cccc1Cl [Compound 80]	6 nM	> 1000 nM
Nc1nccc(-c2sc(-c3ccccc3)nc2-c2cccc(NS(=O)(=O)c3ccc4[nH]ncc4c3)c2F)n1 [Compound 83]	842 nM	> 1000 nM
Nc1nccc(-c2c(-c3cccc(NS(=O)(=O)c4c(F)cccc4F)c3F)nc(-c3ccccc3)n2O)n1 [Compound 84]	133 nM	> 1000 nM
Nc1nccc(-c2[nH]c(-c3ccccc3)nc2-c2cccc(NS(=O)(=O)c3c(F)cccc3F)c2F)n1 [Compound 85]	33.2 nM	100 to 1000 nM
CCc1ccn2c(-c3ccnc(N)n3)c(-c3cccc(NS(=O)(=O)c4c(F)cccc4F)c3F)nc2c1 [Compound 92]	89.2 nM	> 1000 nM
Cc1cccn2c(-c3ccnc(N)n3)c(-c3cccc(NS(=O)(=O)c4c(F)cccc4F)c3F)nc12 [Compound 93]	41.8 nM	> 1000 nM
NC(=O)c1ccn2c(-c3ccnc(N)n3)c(-c3cccc(NS(=O)(=O)c4c(F)cccc4F)c3F)nc2c1 [Compound 94]	98.6 nM	> 1000 nM
CN(C)c1ccn2c(-c3ccnc(N)n3)c(-c3cccc(NS(=O)(=O)c4c(F)cccc4F)c3F)nc2c1 [Compound 95]	71.6 nM	> 1000 nM
Nc1nccc(-c2c(-c3cccc(NS(=O)(=O)c4c(F)cccc4F)c3F)nc3cc(C(=O)O)ccn23)n1 [Compound 96]	127 nM	> 1000 nM
CCOc1ccn2c(-c3ccnc(N)n3)c(-c3cccc(NS(=O)(=O)c4c(F)cccc4F)c3F)nc2c1 [Compound 97]	98.2 nM	> 1000 nM
CNc1nccc(-c2c(-c3cccc(NS(=O)(=O)c4c(F)cccc4F)c3F)nc3cc(OC)ccn23)n1 [Compound 98]	78.3 nM	> 1000 nM
COc1cc2nc(-c3cccc(NS(=O)(=O)c4c(F)cccc4F)c3F)c(-c3ccnc(N)n3)n2cc1Cl [Compound 100]	137 nM	> 1000 nM
N#Cc1ccn2c(-c3ccnc(N)n3)c(-c3cccc(NS(=O)(=O)c4c(F)cccc4F)c3F)nc2c1 [Compound 101]	436 nM	> 1000 nM
CNc1nccc(-c2c(-c3cccc(NS(=O)(=O)c4c(F)ccc(C)c4F)c3F)nc3c(F)cccn23)n1 [Compound 102]	96.5 nM	> 1000 nM
CNc1nccc(-c2c(-c3cccc(NS(=O)(=O)c4c(F)ccc(C)c4F)c3F)nc3cc(OC)ccn23)n1 [Compound 103]	51.8 nM	> 1000 nM
CC(C)Oc1ccn2c(-c3ccnc(N)n3)c(-c3cccc(NS(=O)(=O)c4c(F)cccc4F)c3F)nc2c1 [Compound 104]	134 nM	> 1000 nM
Nc1nccc(-c2c(-c3cccc(NS(=O)(=O)c4c(F)cccc4F)c3F)nc3cc(C(F)(F)F)ccn23)n1 [Compound 105]	400 nM	> 1000 nM
CNc1nccc(-c2c(-c3cccc(NS(=O)(=O)c4c(F)ccc(C)c4F)c3F)nc3ccc(F)cn23)n1 [Compound 106]	91.7 nM	> 1000 nM
CNc1nccc(-c2c(-c3cccc(NS(=O)(=O)c4c(F)ccc(C)c4F)c3F)nc3cc(F)ccn23)n1 [Compound 107]	113 nM	> 1000 nM
O=S(=O)(Nc1cccc(-c2nn(C3CCCCC3)cc2-c2ccnc(Nc3ccc(N4CCOCC4)nc3)n2)c1F)c1c(F)cccc1F [Compound 109]	4.6 nM	< 100 nM
Nc1nccc(-c2cn(C3CCCCC3)nc2-c2cccc(NS(=O)(=O)c3c(F)cccc3F)c2F)n1 [Compound 110]	221 nM	> 1000 nM
Nc1nccc(-c2sc(N3CCCCC3)nc2-c2cccc(NS(=O)(=O)c3c(F)cccc3F)c2F)n1 [Compound 111]	16.4 nM	100 to 1000 nM
CNc1nccc(-c2sc(N3CCCC3=O)nc2-c2cccc(NS(=O)(=O)c3c(F)cccc3F)c2F)n1 [Compound 113]	23.8 nM	> 1000 nM
CNc1nccc(-c2sc(NC)nc2-c2cccc(NS(=O)(=O)c3c(F)cccc3F)c2F)n1 [Compound 114]	18.5 nM	100 to 1000 nM
